Paper PMC7510464, “The wasp venom antimicrobial peptide polybia‐CP and its synthetic derivatives display antiplasmodial and anticancer properties” (Bioengineering & Translational Medicine, 2020)
No end group written: not given here.

Assays:
[1] = system: human mammary cells (MCF-7); experiment: MTT assay, MCF-7 cells; assay type: cell-based; conditions: 570 nm, method gives serial dilutions 0.09–50 μmol L^−1, 2 and 24 hr (time for IC50 not stated), triplicate, NO = not observed, read-out: IC50, concentration of peptide needed for killing 50% of MCF-7
Protocol: (§1) Human mammary adenocarcinoma (MCF‐7) cells were maintained in RPMI 1640 medium supplemented with 10% heat inactivated fetal bovine serum and 100 μg ml^−1 penicillin/10 μg ml^−1 streptomycin. While hepatocellular carcinoma (Hep G2) cells, neuroblastoma (SHSY‐5Y) cells and melanoma (SK‐mel‐147) cells were maintained in RPMI 1640 medium supplemented with 10% heat inactivated fetal bovine serum and 100 μg ml^−1 penicillin/10 μg ml^−1 streptomycin. One day before the assays, the cells were plated in 96‐well microtiter plate with a density of 2.0 × 10^4 cells/well at 37°C and 5% CO2. On the next day, cells were treated with peptides serial dilutions (0.09–50 μmol L^−1), incubated in individual microtiter plates for 2 and 24 hr and MTT assays were performed after treatment. Human breast epithelial cells MCF‐10A (ATCC) were maintained in mixture of Dulbecco's modified Eagle's medium and Ham's F12 nutrient mixture supplemented with 5% inactivated horse serum, 10 μg ml^−1 insulin, 0.02 μg ml^−1 human epidermal growth factor, 0.5 μg ml^−1 hydrocortisone, 0.10 μg ml^−1 choleric toxin, 100 U ml^−1 penicillin, and 100 μg ml^−1 streptomycin. […]
(§2) Briefly, MTT (Sigma–Aldrich) was dissolved in water and filtered to make up a 5 μg ml^−1 solution. […] Finally, the microplates were read on an ELISA reader at 570 nm. […]

[2] = system: carcinoma cells of human liver (HepG2); experiment: MTT assay, HepG2 cells; assay type: cell-based; conditions: 570 nm, method gives serial dilutions 0.09–50 μmol L^−1, 2 and 24 hr (time for IC50 not stated), triplicate, NO = not observed, read-out: IC50, concentration of peptide needed for killing 50% of HepG2
Protocol: as §1, §2

[3] = system: neuroblastoma cell (SH-SY5Y); experiment: MTT assay, SH-SY5Y cells; assay type: cell-based; conditions: 570 nm, method gives serial dilutions 0.09–50 μmol L^−1, 2 and 24 hr (time for IC50 not stated), triplicate, NO = not observed, read-out: IC50, concentration of peptide needed for killing 50% of SH-SY5Y
Protocol: as §1, §2

[4] = system: Plasmodium gallinaceum sporozoites; experiment: Effect of peptides on salivary gland-derived P. gallinaceum sporozoites (membrane integrity, propidium iodide fluorescence); assay type: cell-based; conditions: peptides 0.39–6.25 μmol L^−1, 9000 sporozoites in 50 μl PBS, 37°C, 1 hr, fluorescence microscopy, three independent replicates
Protocol: To assess the antiplasmodial activity of Pol‐CP‐NH2 and its derivatives, the molecules were incubated with Plasmodium gallinaceum sporozoites. The avian malaria parasite, P. gallinaceum, was chosen as the plasmodium model for this study because it presents lower risk and it is highly similar ^27 , ^28 to existing Plasmodium falciparum models responsible for human malaria. ^29
FIGURE 2 Antiplasmodial activity of polybia‐CP and derivatives in vitro. […] In red, we highlight the conditions at which the peptides were not active against the Plasmodium sporozoites. Experiments were performed in three independent replicates with three repetitions for each condition
Nine thousand P. gallinaceum mature sporozoites were pulled from the salivary glands of A. aegypti and incubated in 50 μl of PBS solution, with 40 μmol L^−1 digitonin (positive control), 0.39–6.25 μmol L^−1 peptides or negative control (PBS solution), at 37°C for 1 hr. Cell membrane integrity was then observed using a Carl Zeiss inverted fluorescence microscope (model Observer Axio Vision A.1) coupled to an image capture Zeiss AxioCam HR digital camera (1,300 × 1,030 pixels resolution and 8‐bit quantization) after addition of 1 μl of the propidium iodide aqueous solution (200 μmol L^−1) in […] of total solution volume. Images were obtained using a ×40 objective lens and a green filter effect in red. […]

[5] = system: human embryonic kidney (HEK293) cells; conditions: at 25 μmol L^−1; cited from earlier work
From the text: The inhibitory activities observed against cancer cell lines are at the same range of concentrations reported for antimicrobial activity ^6 (Figure 2b) for this family of peptides.

Substance	IC50 [1]	IC50 [2]	IC50 [3]	antiplasmodial activity (fluorescent sporozoites, membrane disrupted) [4]	toxicity against HEK293 cells [5]
ILGKILGLLKSL-NH2 [[Lys]^4-Pol-CP-NH2]	200 µM	> 50 µM	> 50 µM	most active ones against Plasmodium	–
ILGTILGLLKSL-NH2 [Pol-CP-NH2, Ile‐Leu‐Gly‐Thr‐Ile‐Leu‐Gly‐Leu‐Leu‐Lys‐Ser‐Leu‐NH2]	200 µM	–	–	–	one of the most toxic AMPs of the polybia‐CP family
